Assay results published in ChEMBL document CHEMBL1201862, “PubChem BioAssay data set” (2004).
The source made the active and inactive calls.

Columns and labels:
[1] = CRF-BP/CRF-R2 complex antagonists, dose response, cell-based, uHTS hits, 384-well (AID 651639); assay type: functional, Homo sapiens; settings: read-out: IC50_Mean
[2] = target: T1, Corticotropin-releasing factor receptor 2/Corticotropin-releasing factor-binding protein (Homo sapiens, UniProt P24387+Q13324); assay: Dose Response confirmation of uHTS hits for small molecule antagonists of the CRF-binding protein and CRF-R2 receptor complex.; assay type: functional; settings: read-out: IC50_Mean
T1 sequence (Q13324 whole entry): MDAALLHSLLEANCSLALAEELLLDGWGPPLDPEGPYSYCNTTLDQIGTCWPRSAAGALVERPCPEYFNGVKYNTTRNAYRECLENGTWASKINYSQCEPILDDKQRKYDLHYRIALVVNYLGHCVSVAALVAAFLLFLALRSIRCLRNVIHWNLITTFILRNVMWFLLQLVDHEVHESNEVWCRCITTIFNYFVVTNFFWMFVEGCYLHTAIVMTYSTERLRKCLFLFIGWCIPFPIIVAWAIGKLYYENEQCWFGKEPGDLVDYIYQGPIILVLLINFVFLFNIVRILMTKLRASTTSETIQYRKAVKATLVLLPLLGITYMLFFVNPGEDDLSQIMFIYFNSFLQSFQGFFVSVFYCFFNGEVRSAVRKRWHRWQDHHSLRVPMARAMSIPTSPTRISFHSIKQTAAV
T1 sequence (P24387 whole entry): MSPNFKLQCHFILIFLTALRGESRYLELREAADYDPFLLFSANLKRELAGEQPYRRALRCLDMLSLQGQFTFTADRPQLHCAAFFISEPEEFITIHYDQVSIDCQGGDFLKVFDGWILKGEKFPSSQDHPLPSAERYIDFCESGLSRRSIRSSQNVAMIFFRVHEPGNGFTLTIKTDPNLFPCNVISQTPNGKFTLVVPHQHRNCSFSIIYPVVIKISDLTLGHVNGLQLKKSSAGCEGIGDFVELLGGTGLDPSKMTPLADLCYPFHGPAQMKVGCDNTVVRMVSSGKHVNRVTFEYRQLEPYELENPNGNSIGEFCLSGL

[3] = target: T1, Corticotropin-releasing factor receptor 2/Corticotropin-releasing factor-binding protein; assay: activators of CRF receptor 2 with binding protein – uHTS hits, confirmation (AID 602473); assay type: functional; settings: read-out: EC50_Mean
[4] = target: T2, Tyrosine-protein phosphatase non-receptor type 5 (Homo sapiens, UniProt P54829); assay: STEP phosphatase inhibitors, confirmation, biochemical, fluorescence intensity, uHTS hits (AID 602372); assay type: functional; settings: read-out: IC50_Mean
T2 sequence (P54829 whole entry): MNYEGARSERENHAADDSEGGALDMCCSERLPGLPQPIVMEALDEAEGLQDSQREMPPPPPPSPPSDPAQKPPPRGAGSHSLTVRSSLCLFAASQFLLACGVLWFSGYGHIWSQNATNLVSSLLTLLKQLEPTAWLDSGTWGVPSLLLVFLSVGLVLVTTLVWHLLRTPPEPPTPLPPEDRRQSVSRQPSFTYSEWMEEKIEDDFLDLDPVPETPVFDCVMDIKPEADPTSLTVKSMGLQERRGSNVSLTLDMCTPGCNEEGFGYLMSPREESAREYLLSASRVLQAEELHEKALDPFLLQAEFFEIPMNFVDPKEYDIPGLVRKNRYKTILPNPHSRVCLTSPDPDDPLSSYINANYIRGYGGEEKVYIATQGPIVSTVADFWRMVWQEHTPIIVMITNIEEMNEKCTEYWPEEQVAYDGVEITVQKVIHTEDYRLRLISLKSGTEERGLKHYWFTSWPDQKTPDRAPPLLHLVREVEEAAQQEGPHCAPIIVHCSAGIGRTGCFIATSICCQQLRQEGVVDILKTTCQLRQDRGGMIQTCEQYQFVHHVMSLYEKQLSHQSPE

[5] = target: Dual specificity protein phosphatase 3 (Homo sapiens, UniProt P51452); assay: VHR phosphatase inhibition, dose response, selectivity assay for STEP inhibitor project, biochemical (AID 602374); assay type: functional; settings: read-out: IC50_Mean
Dual specificity protein phosphatase 3, sequence (P51452 whole entry): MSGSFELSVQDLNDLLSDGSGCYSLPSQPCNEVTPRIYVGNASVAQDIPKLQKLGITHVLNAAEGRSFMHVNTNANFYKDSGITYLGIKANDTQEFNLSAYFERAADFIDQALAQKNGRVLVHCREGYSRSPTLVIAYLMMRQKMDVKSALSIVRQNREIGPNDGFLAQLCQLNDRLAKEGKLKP

[6] = target: T3, Tyrosine-protein phosphatase non-receptor type 11 (Homo sapiens, UniProt Q06124); assay: SHP2 phosphatase inhibition, dose response, selectivity assay for STEP inhibitor project, biochemical (AID 602367); assay type: functional; settings: read-out: IC50_Mean
T3 sequence (Q06124 whole entry): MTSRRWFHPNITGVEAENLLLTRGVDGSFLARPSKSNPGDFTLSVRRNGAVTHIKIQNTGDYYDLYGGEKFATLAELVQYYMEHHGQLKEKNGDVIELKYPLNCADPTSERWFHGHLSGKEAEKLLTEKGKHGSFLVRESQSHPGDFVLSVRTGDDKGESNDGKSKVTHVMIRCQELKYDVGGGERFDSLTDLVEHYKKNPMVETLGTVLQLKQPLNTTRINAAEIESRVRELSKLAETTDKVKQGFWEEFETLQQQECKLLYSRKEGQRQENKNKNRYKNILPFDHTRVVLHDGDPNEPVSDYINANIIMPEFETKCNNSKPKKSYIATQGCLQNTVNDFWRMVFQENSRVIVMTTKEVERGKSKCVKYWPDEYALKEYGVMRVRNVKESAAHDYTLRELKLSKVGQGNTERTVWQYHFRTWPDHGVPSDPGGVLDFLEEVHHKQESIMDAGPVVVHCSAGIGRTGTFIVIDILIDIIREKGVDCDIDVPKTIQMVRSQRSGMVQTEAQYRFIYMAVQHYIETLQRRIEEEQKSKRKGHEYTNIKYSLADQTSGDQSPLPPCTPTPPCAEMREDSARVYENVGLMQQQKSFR

[7] = target: Eukaryotic translation initiation factor 4E (Mus musculus, UniProt P63073); assay: eIF4E–eIF4G protein interaction inhibitors, dose response, biochemical, TR-FRET (AID 855); assay type: functional;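 note: potency for disrupting eIF4E binding to eIF4GI seen as loss of FRET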
Eukaryotic translation initiation factor 4E, sequence (P63073 whole entry): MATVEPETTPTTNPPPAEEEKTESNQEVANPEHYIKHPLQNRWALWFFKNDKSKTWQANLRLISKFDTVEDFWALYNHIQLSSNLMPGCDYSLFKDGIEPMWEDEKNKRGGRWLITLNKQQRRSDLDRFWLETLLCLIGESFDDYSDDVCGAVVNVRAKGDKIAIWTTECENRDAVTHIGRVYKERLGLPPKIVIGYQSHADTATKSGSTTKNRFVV

[8] = intracellular Trypanosoma cruzi inhibitors in host cells – cell-based, plate reader, cherry-pick samples, set 3, dose response (AID 651818); assay type: functional;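 note: compounds incubated with infected cells for about four days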
[9] = target: Photoreceptor-specific nuclear receptor (Homo sapiens, UniProt Q9Y5X4); assay type: functional, cell-based;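 note: CHO-S cells with Gal4-NCOR and VP16-NR2E3 two-hybrid luciferase reporter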
Photoreceptor-specific nuclear receptor, sequence (Q9Y5X4 whole entry, the tested form may be a part): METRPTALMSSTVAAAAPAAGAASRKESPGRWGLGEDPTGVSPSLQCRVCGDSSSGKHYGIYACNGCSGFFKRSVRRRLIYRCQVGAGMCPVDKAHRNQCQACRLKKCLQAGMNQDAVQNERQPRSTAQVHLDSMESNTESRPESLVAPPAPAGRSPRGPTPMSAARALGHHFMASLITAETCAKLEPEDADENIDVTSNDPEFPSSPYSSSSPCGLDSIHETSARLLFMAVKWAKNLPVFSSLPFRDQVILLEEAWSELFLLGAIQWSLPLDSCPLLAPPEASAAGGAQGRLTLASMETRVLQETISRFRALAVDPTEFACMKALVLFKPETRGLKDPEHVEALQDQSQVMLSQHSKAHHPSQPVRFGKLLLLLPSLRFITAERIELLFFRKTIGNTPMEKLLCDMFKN

Fatty acid synthase [10] = target: T4, Fatty acid synthase (Homo sapiens, UniProt P49327); assay: FAS thioesterase domain inhibitors, dose response, biochemical, kinetic fluorescence intensity (AID 624326); assay type: functional;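 note: rate of fluorescence rise from hydrolysis of a fluorogenic O-methyl fluorescein ester substrate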
T4 sequence (P49327 whole entry, the tested form may be a part): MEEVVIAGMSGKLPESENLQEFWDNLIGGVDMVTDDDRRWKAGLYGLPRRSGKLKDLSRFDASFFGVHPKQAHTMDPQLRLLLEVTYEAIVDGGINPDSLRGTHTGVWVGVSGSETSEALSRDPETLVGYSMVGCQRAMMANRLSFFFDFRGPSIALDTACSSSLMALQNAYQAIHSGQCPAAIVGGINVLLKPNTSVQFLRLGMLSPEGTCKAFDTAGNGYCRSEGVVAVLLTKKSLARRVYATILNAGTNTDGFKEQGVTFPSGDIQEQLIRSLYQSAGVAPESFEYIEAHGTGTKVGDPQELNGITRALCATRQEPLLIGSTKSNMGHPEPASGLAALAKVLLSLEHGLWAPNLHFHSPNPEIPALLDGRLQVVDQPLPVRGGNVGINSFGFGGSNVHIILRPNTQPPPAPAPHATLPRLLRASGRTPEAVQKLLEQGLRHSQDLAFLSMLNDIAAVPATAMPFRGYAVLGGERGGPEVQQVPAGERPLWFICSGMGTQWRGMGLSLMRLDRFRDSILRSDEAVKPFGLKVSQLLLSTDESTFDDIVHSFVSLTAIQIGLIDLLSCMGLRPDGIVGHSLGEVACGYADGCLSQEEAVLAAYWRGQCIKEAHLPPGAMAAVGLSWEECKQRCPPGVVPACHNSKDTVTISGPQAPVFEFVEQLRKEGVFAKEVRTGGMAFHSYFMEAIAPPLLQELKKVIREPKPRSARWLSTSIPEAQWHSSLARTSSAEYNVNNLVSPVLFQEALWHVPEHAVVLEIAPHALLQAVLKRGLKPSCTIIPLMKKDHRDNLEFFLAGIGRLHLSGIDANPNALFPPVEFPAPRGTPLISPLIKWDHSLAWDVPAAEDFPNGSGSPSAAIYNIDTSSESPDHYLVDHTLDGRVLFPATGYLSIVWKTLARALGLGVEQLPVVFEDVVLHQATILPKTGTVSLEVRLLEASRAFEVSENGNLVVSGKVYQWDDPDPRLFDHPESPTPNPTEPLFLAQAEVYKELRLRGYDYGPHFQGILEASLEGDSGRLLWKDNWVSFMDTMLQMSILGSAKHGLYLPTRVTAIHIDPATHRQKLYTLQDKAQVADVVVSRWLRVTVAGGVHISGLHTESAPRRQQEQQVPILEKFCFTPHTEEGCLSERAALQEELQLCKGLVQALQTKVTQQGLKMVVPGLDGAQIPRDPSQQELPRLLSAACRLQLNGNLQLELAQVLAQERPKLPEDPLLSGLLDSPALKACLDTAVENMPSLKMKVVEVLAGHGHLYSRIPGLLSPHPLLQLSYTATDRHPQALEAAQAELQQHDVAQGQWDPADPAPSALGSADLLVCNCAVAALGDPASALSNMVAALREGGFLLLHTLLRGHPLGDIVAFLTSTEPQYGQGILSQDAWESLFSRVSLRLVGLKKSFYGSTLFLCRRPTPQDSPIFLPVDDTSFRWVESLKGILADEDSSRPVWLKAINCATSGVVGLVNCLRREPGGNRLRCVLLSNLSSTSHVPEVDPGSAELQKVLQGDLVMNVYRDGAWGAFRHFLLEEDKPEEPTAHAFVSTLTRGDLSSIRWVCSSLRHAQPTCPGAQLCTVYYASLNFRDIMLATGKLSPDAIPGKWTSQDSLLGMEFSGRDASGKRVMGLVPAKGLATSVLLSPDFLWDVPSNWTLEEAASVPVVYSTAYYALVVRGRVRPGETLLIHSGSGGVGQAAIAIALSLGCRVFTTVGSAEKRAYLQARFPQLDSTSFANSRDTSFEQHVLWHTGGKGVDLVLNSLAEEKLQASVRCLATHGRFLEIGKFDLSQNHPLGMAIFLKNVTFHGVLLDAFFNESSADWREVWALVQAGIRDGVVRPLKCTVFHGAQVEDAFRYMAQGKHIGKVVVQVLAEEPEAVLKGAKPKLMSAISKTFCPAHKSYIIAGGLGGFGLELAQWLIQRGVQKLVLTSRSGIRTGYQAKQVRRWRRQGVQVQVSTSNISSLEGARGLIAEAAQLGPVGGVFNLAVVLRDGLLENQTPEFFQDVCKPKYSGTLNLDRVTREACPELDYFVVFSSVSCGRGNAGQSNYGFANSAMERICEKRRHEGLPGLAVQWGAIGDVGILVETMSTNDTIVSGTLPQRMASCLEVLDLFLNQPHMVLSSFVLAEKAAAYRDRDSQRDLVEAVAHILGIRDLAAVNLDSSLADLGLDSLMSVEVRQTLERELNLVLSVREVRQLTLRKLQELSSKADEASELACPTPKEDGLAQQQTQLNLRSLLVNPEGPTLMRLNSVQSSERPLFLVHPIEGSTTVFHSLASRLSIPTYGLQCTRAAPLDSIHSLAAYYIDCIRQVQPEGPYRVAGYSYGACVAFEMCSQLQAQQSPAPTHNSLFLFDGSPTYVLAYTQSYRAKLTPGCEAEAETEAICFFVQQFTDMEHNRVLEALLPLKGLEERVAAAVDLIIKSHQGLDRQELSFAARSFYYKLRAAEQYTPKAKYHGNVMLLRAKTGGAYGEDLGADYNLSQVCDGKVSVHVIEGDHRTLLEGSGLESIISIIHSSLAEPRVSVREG

[11] = Luminescence Cell-Based Dose Retest to Confirm Inhibitors of Cancer Stem Cells. [Related pubchem assays (depositor defined):AID2717, AID2721]; assay type: functional; settings: Homo sapiens
[12] = cytotoxicity in HMLE control line with eGFP shRNA, dose response, counter-screen for HMLE_sh_ECad selective toxicity project, cell-based, HMLE_sh_eGFP, luminescence (AID 463074); assay type: functional, Homo sapiens;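 note: HMLE human mammary epithelial cells expressing control shRNA against eGFP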
Fatty acid synthase [13] = target: T4, Fatty acid synthase; assay: FAS thioesterase domain inhibitors, dose response, biochemical, endpoint fluorescence intensity, uHTS hits (AID 624327); assay type: functional;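 note: fluorescence from hydrolysis of an O-methyl fluorescein acyl ester substrate by the enzyme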
[14] = NIH-3T3 fibroblast cytotoxicity, dose response, cytotoxicity control, cell-based, fluorescence, Alamar Blue, secondary assay (AID 2327); assay type: functional;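 note: NIH-3T3 mouse fibroblasts cultured with fluconazole at 8 µg/mL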
[15] = C. albicans growth with fluconazole, confirmation, fluorescence, retest (AID 2467); assay type: functional, cell-based
[16] = target: T5, DNA repair and recombination protein RAD54-like (Homo sapiens, UniProt Q92698); assay: inhibitors of human RAD54 branch migration, confirmation, biochemical, fluorescence, cherry-picked samples, dose series (AID 651657); assay type: functional
T5 sequence (Q92698 whole entry): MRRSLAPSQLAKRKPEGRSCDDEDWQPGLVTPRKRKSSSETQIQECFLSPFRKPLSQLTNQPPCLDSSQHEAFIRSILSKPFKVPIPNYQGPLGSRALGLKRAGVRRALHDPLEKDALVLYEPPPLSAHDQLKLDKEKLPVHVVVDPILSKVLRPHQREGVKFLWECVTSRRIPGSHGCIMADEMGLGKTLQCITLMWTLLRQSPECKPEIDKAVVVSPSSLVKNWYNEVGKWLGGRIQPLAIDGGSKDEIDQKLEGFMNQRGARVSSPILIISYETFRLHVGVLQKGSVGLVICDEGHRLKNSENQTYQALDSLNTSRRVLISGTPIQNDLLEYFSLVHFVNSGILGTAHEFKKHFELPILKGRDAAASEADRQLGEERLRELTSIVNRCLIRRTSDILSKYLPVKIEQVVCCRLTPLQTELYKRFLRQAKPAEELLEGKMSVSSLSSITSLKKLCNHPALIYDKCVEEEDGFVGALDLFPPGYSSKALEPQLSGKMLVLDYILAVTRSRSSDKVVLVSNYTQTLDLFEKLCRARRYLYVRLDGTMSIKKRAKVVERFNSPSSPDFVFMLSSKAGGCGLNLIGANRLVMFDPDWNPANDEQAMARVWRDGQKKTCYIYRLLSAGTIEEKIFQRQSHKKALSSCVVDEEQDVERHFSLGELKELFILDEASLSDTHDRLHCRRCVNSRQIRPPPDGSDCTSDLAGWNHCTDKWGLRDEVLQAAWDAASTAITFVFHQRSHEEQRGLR

[17] = target: T6, Histone-lysine N-methyltransferase NSD2 (Homo sapiens, UniProt O96028); assay type: biochemical
T6 sequence (O96028 whole entry): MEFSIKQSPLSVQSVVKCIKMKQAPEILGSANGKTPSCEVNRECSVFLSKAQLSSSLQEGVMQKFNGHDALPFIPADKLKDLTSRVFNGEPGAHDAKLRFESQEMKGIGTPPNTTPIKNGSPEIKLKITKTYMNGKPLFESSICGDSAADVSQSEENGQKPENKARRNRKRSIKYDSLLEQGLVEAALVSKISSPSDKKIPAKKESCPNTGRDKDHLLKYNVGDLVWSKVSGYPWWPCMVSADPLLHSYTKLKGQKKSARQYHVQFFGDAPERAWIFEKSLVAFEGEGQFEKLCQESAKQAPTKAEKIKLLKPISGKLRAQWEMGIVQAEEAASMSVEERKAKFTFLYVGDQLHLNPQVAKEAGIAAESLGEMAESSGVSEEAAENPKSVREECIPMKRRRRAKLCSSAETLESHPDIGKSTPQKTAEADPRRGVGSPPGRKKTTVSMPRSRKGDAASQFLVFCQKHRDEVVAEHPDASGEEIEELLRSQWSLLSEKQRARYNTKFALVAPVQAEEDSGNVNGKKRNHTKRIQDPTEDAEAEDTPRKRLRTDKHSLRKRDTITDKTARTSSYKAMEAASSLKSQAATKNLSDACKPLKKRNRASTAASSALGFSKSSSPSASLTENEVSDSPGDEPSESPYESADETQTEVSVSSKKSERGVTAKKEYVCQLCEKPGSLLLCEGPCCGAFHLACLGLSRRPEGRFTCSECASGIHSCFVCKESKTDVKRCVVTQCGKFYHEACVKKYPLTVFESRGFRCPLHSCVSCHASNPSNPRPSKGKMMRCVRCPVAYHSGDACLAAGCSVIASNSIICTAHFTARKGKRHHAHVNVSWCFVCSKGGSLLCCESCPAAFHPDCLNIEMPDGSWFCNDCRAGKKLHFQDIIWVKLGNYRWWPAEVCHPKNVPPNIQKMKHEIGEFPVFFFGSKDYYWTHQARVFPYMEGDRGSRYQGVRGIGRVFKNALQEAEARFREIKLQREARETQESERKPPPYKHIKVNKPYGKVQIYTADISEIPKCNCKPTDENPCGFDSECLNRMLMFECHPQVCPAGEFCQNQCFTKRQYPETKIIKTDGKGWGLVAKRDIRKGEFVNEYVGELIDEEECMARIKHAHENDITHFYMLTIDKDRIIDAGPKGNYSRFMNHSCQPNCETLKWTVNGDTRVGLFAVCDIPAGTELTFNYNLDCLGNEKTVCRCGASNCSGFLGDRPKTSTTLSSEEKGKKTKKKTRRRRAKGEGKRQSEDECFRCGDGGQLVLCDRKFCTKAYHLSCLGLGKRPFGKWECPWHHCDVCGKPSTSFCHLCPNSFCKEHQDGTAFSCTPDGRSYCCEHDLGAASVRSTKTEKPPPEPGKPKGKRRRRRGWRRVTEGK

For `O=C(O)c1ccc(-n2ncc3c2/C(=C/c2cccc([N+](=O)[O-])c2)CC3)cc1`, the IC50 [1] was 9.76 µM (active), the IC50 [2] was 4.34 µM (active) and the EC50 [3] was > 53 µM (inactive).

With `COc1ccc(NC(=S)NCCCN2CCCC2)cc1Cl` the IC50 [4] was 16.4 µM (active), the IC50 [5] was 1.12 µM (active) and the IC50 [6] was 1.89 µM (active).

In the case of `COCC(C)n1c(SCc2ccc(C(=O)OC)o2)nc2ccccc2c1=O` (stereo unspecified), the IC50 [7] was > 64 µM (inactive), the IC50 [1] was > 20 µM (inactive) and the IC50 [2] was 27.4 µM (active). For the same compound, the EC50 [3] was > 53 µM (inactive).

For `C[C@@H]1CN([C@H](C)CO)C(=O)c2cc(N(C)C)ccc2O[C@@H]1CN(C)Cc1ccc(C(=O)Nc2ccccc2N)cc1`, the AC50 [8] was 3.19 µM (active).

In the case of `O=C(COC(=O)c1cc([N+](=O)[O-])ccc1N1CCOCC1)Nc1ccc(Cl)cn1`, the IC50 [9] was 1.91 µM (active), the IC50 (Fatty acid synthase [10]) was 6.06 µM (active) and the AC50 [11] was 4.89 µM (active). For the same compound, the AC50 [12] was 25.6 µM (active) and the IC50 (Fatty acid synthase [13]) was 5.2 µM (active).

With `C[C@@H]1CN([C@H](C)CO)C(=O)c2cccc(NS(=O)(=O)c3ccc(F)cc3)c2O[C@@H]1CN(C)C(=O)Nc1ccc(C(F)(F)F)cc1` the AC50 [8] was 4.16 µM (active).

With `O=C1/C(=C\c2ccc(Br)cc2)SC(=S)N1NS(=O)(=O)c1ccccc1` the IC50 [1] was 17.6 µM (active), the EC50 [14] was 94.2 µM (active) and the IC50 [2] was 5.5 µM (active). The EC50 [15] was 0.267 µM (active) and the EC50 [3] was 36.2 µM (active).

In the case of `CCCN(CCC)CCCNC(=O)c1cc2c(O)nc3ccccc3c2s1`, the AC50 [16] was 71.6 µM (active).

In the case of `C[C@@H]1CN([C@@H](C)CO)C(=O)Cc2cc(NC(=O)Nc3ccc(C(F)(F)F)cc3)ccc2O[C@@H]1CN(C)Cc1ccc(C(=O)Nc2ccccc2N)cc1`, the AC50 [8] was 1.8 µM (active).

For `CC(C)NC1CCC(Nc2ccnc3cc(Cl)ccc23)CC1` (stereo unspecified), the AC50 [16] was 25.7 µM (active) and the AC50 [17] was > 20 µM (inactive).
